Values belong to the compound of their own block, whether it stands above or below them.
Legend:
[1] = biological target: T1, L-ARQ46 (Homo sapiens, UniProt P10275); assay: ThT aggregation assay of ARQ46 seeded with soluble aggregate fragments; format: biochemical; details: 15 µM ARQ46
T1 construct: L-ARQ46; purchased peptides & elephants GmbH (Henningsdorf, Germany); host or cells: chemical synthesis
Experimental: (§1) Following the disaggregation protocol that Chen et al. published, the polyglutamine proteins were incubated for three days in 1:1 TFA/Hexafluoroisopropanol (HFIP) or overnight in 100% trifluoroacetic acid (TFA). Afterwards the solvent was evaporated with N2 gas treatment and the polyglutamine protein redissolved in the experiment buffer.
(§2) Thioflavin T (ThT) assays were performed to monitor the time-dependent formation of amyloidogenic aggregates. The assays were performed at 37 °C in TBS pH 7.5 (15 µM ThT) with 300 rpm double orbital shaking. All buffers were sterile filtrated beforehand. Polyglutamine proteins were disaggregated as described before. The peptides were pre-diluted in TBS pH 7.5. The disaggregated polyglutamine protein in buffer was mixed with 15 µM ThT and the pre-diluted peptides in a 96-well half-area flat-bottom microplate (Corning, New York, NY, USA). During the experiment all wells contained 100 µL ThT solution. Sealing the plate with foil (Thermo Fisher Scientific, Waltham, MA, USA) helped to prevent evaporation. The progression of fluorescence intensity was tracked by a microplate reader (BMG Labtech, Ortenberg, Germany).
For seeded experiments, the slope of the curve was considered instead of the lag-time because seeding eliminated the lag-time. The slope was determined by plotting the first values and fitting with a linear fit. The considered period (2 to 3.5 h) was similar for the curves compared with.
The disaggregated ARQ46 was diluted to 300 µM and incubated at 37 °C, 400 rpm. After 24 h large, white aggregates were visible in the tube. The sample was sonicated (Sonopuls, Bandelin electronic GmbH & Co. KG, Berlin, Germany) four times for 15 s with an amplitude of 60%. Between the sonification steps the sample was cooled on ice. Post sonification the sample was turbid. It was centrifuged at 100,000 g for 1 h at 4 °C to remove insoluble aggregates from the solution. The clear supernatant was used for seeding with soluble aggregate fragments.
Figure 5 QF2D-1, QF2D-2 and QF2D-6 inhibit the aggregation of ARQ46 in presence of soluble aggregate fragment seeds; ARQ46 was aggregated, and the solution was subject to spinning at 100,000 g in an ultracentrifuge. The supernatant was preincubated with 15 µM and 7.5 µM of one of the selected compounds in TBS at 37 °C. After 23 h, 15 µM monomeric ARQ46 were added, and the fluorescence intensity was measured every 15 min at λex = 448 nm and λem = 482 nm with agitation at 300 rpm between measurements. P8 served as a control compound that was not selected on polyglutamine, whereas QBP1 is claimed to bind polyglutamine tracts and inhibit polyglutamine-driven aggregation. (A) Fluorescence intensity of P8, QBP1, QF2D-1, QF2D-2 and QF2D-6 in equimolar and sub stoichiometric ratio at 90 h. (B) The data points acquired between 24 h and 26 h- shortly after monomer addition- were fitted with a linear fit. The slope was compared. (C) Measurement example of the described ThT-assay with ARQ46 (black), P8 (light grey), QBP1 (grey) and QF2D-2 (dark grey). The mean fluorescence intensity is shown for each time point. The experiment was performed in two-fold determination.

[2] = biological target: T1, L-ARQ46; assay: ThT aggregation assay, monomeric ARQ46, unseeded; format: biochemical
Experimental: as §1, §2
The lag-time was estimated as follows: the average variation of the curve was determined with the last ten values of the steady state. […]
The progression of fluorescence intensity was measured every 30 min at λex = 410 nm and λem = 482 nm with 30 s agitation at 300 rpm before every measurement. (A) Fluorescence intensity measured at 90 h of the aggregation assay starting with 15 µM monomeric ARQ46 without peptide and with 15 µM QF2D-1, QF2D-2, QF2D-3, QF2D-4, QF2D-5, QF2D-6, QF2D-7, QF2D-8 or QF2D-9. […] The mean fluorescence intensity is shown for each time point. […]
Figure 8 Effect of different QF2D-2 concentrations on the aggregation of ARQ46; ThT assay with L-ARQ46 was performed at 37 °C in TBS pH 7.5. The progression of fluorescence intensity was measured every 30 min at λex = 410 nm and λem = 482 nm with 30 sec agitation at 300 rpm before every measurement. […] The mean fluorescence intensity is shown for each time point. […]

[3] = CD secondary structure of polyglutamine peptides; format: physicochemical
Experimental: as §1
After disaggregation, polyglutamine proteins were dissolved in TBS pH 7.5 and measured in a quartz crystal cuvette with 1 mm light path (Hellma Analytics, Müllheim, Germany) in a CD spectrometer (J-1100, Jasco Deutschland GmbH, Pfungstadt, Germany) with 4 acquisitions. The High tension voltage (HT) was monitored throughout the experiment. Data for which the HT exceeded 600 V were excluded. Buffer measurements served as references. Analogous, samples containing 50 µM ARQ46 and 50 µM QF2D-1 or QF2D-2 were measured and referenced with the measurement of 50 µM QF2D-1 or QF2D-2 alone. […] The CD spectra of the samples were monitored after 24 h, 48 h and 168 h of aggregation.
(§3) Figure 1 Disaggregation of ARQ46; Examination of ARQ46 post disaggregation. […] (B) ThT-Measurement of 15 µM ARQ46, disaggregated with 1:1 TFA/HFIP, in TBS pH 7.5 measured at 37 °C.
Figure 2 CD-spectrum of D-ARQ23 disaggregated with 100% TFA; Prior to the phage display selection D-ARQ23 was disaggregated with TFA to ensure selection on monomeric target. CD-spectrum was recorded in 10 mM Tris pH 8.

[4] = Spontaneous aggregation of polyglutamine peptides (ThT); format: physicochemical; details: no inhibitor, TBS pH 7.5, 37 °C
Experimental: as §1, §2, §3

[5] = biological target: T1, L-ARQ46; assay: SPR binding to immobilized L-ARQ46; details: L-ARQ46 immobilized on CM5 chip via amine coupling (1400 RU); steady state affinity fit; TBS pH 7.5, 0.05% Tween, 25 °C; multi-cycle, up to 20 µM; data not shown
Experimental: Binding studies were performed with surface plasmon resonance (SPR) in a Biacore T200 device (Biacore, GE Healthcare, Uppsala, Sweden). The L-ARQ46 was immobilized on a CM5 Chip via amine coupling (1400 RU). The selected D-enantiomeric peptide compound QF2D-2 was dissolved in the running buffer (TBS pH 7.5 with 0.05% Tween) and served as the analyte in multi-cycle experiments, with the highest peptide concentration being 20 µM. Experiments were performed at 25 °C with a flow rate of 45 µL/min. After a contact time of 110 s and a dissociation time of 400 s, the surface was regenerated with low pH (Glycin-HCl, pH 2.2) for 30 s with a flow rate of 30 µL/min. The data were evaluated via affinity fit of the steady state using the biacore evaluation software.

[6] = test system: polyglutamine proteins; details: cited from earlier work
Description: Patients suffering from polyglutamine diseases present with aggregates in their neurons before symptom onset and therefore probably also before treatments start. Thus, a promising drug candidate should inhibit the aggregation in presence of pre-formed aggregates. […] The effects of the compounds were compared with two controls. The first, P8, has been selected on SOD1 and should not bind to polyg ...

[7] = test system: Drosophila; design: method as in PMID 12761040; details: cited from earlier work
[8] = test system: polyglutamine disease mouse model; design: method as in PMID 18603372, PMID 23226463, PMID 23504628; details: cited from earlier work
[9] = soluble aggregate seeds, slope 24 to 26 h, peptide concentration not stated (15 or 7.5 µM)

T1 sequence (P10275 with tags, fused parts or gaps): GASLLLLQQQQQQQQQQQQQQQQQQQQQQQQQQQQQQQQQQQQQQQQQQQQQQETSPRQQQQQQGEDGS

Reduction of slope compared to QBP1 [1, 9]: 86%
Reduction of slope compared with P8 [1, 9]: 96%
Kd [5]: 11 µM
Fluorescence intensity of the steady state, % of that measured for ARQ46 ([2]; at 90 h, equimolar, 15 µM ARQ46 and 15 µM peptide, TBS pH 7.5, 37 °C, λex 410 nm, λem 482 nm, three-fold determination): approx. 70%
Compound: C[C@H](O)[C@@H](NC(=O)[C@@H](CO)NC(=O)[C@@H](Cc1c[nH]c2ccccc12)NC(=O)[C@@H](CCC(N)=O)NC(=O)[C@@H](CO)NC(=O)[C@@H](CCC(N)=O)NC(=O)[C@H](N)CO)C(=O)N1CCC[C@@H]1C(=O)N[C@H](CCC(N)=O)C(=O)NCC(=O)N[C@H](CCCCN)C(=O)N[C@H](Cc1c[nH]c2ccccc12)C(=O)N[C@H](CO)C(=O)N[C@H](Cc1c[nH]cn1)C(=O)N[C@H](Cc1c[nH]c2ccccc12)C(=O)N1CCC[C@@H]1C(=O)N[C@H](CCCNC(=N)N)C(=O)N[C@H](CCCNC(=N)N)C(=O)N[C@H](CCCNC(=N)N)C(=O)O [QF2D-2]

Effect on aggregation of monomeric ARQ46 (repeat with controls) ([2]; unseeded, ratio not stated, data not shown): drastically inhibited the aggregation
Compound: SNWKWWPGIFD [QBP1]
Inhibition of polyglutamine aggregation [6]: claimed to inhibit the aggregation of polyglutamine proteins
Therapeutic effect in Drosophila [7]: had a therapeutic effect in Drosophila
Effect in presence of soluble aggregate fragments relative to selected peptides ([1]; soluble aggregate seeds): considerably smaller than that of the selected peptides
Neurological effect in mouse model [8]: did not yield beneficial neurological effects

Continued, compound first:

Compound: YDTPKHKDKTWPMM [P8]
Slope of ThT curve after monomer addition (24 to 26 h), in words ([1]; 15 or 7.5 µM peptide preincubated 23 h with soluble seeds, TBS, 37 °C, two-fold determination): the steepest
Lag-phase in presence of soluble aggregates ([1]; soluble aggregate fragment seeds, TBS, 37 °C, two-fold determination): no lag-phase observable
Effect on aggregation of monomeric ARQ46, equimolar (repeat with controls) ([2]; unseeded, equimolar, data not shown): slight inhibiting effect

Compound: L-ARQ46: androgen receptor fragment with 46 consecutive glutamine residues
Beta-sheet structure after incubation ([3]; TBS pH 7.5, 37 °C, 400 rpm, 24 h): 100%
Secondary structure after disaggregation ([3]; freshly disaggregated (100% TFA)): a mixture of random coil and alpha-helical structure
Spontaneous aggregation [4]: spontaneously formed amyloid fibrils after few hours lag time

Compound: KKQQQQQQQQQQQQQQQQQQQQQQQ QQQQQQQQQQQQQQQQQQQQQQQKK [L-K2Q46K2, universal polyglutamine peptide]
Spontaneous aggregation [4]: spontaneously formed amyloid fibrils after few hours lag time
